Test results reported in patent publication US12691096B2, “Drug-controlled systems and uses thereof” (TRUSTEES OF BOSTON UNIVERSITY, priority 2020, dated 2026).

How the values were obtained:
dNS3 [1] = target: T1, dNS3 (Hepatitis C virus genotype 1b, UniProt P26663, A1092G/F1173S/K1113A/P1112Q/S1165A); format: cell-based, hepatitis C virus (HCV); conditions: dNS3-NLuc and CLuc-PMED; HEK293FT lysates; drug added at time of transfection, 48 hours
T1 construct: expressed in transfected cells; host or cells: HEK293FT (read in lysate)
Experimental: To test this, permutations of dNS3, NS3wT and each peptide variant were fused to split fragments of Renilla luciferase (FIG. 2A).
(§1) Luciferase assay. HEK293FT cells were transfected with split luciferase constructs. In the case of drug pretreatment for dose curve experiments, drug was added at the indicated concentration at the time of transfection. Two days later, the transfected cells were lysed with 1× Ex Luciferase Assay Buffer using the Nano-Glo® Dual-Luciferase® Reporter Assay System (Promega). Immediately after, the samples were treated with an additional volume of 1× Ex Luciferase Assay Buffer with the indicated concentration of drug.
(§2) The samples were then read with a plate reader once per minute measuring luminescence with 500 millisecond exposure time. […] For kinetics analysis, linear regression analysis was performed on the untreated samples and used to normalize the data for the treated samples.

wild-type NS3 = wild-type NS3 (Hepatitis C virus genotype 1b, UniProt P26663, A1092G/F1173S/K1113A/P1112Q); format: cell-based, hepatitis C virus (HCV); conditions: NS3WT-NLuc and CLuc-PMED; compared with dNS3
Experimental: as §1, §2

[2] = target: NS3(TI) with S139A mutation (Hepatitis C virus genotype 1b, UniProt P26663, D1194Y/F1069L/Q1106K/S1148R/S1165A); format: cell-based, hepatitis C virus (HCV); conditions: among the three drugs tested (grazoprevir, asunaprevir, telaprevir)
From the text: (§3) To accomplish this, it was sought to make orthogonal inducible Cre recombinases.
(§4) For Cre recombinase control in mammalian cells, live cells were gated in the same manner as above and gated for transfection by either a co-transfection marker of pmiRFP670-N1 or inter-plasmatic constitutive expression of iRFP670 under a separate constitutive promoter. Cells were further deemed as GFP positive if their fluorescence intensity was greater than or equal to the top 1% of non-transfected cells. Baseline activation of GFP positive cells was then subtracted using transfection marker only cells as baseline for all measurements.

[3] = target: telaprevir inducible (TI) NS3 (Hepatitis C virus genotype 1b, UniProt P26663, D1194Y/F1069L/Q1106K/S1148R); format: cell-based, hepatitis C virus (HCV); conditions: telaprevir (10 pM); flow cytometry 48 hours post-drug addition
From the text: as §3, §4

dNS3 [4] = target: T1, dNS3; format: biochemical, hepatitis C virus (HCV); conditions: saturating drug concentrations; 3 pM of each drug added at time of lysis
Experimental: as §1, §2

dNS3-Cre-PHI = dNS3-Cre-PHI (Hepatitis C virus genotype 1b, UniProt P26663, A1092G/F1173S/K1113A/P1112Q/S1165A); conditions: catalytic NS3 S139A mutation (dNS3)
From the text: as §4

T1 sequence (P26663 1027-1206 A1092G/P1112Q/K1113A/S1165A/F1173S): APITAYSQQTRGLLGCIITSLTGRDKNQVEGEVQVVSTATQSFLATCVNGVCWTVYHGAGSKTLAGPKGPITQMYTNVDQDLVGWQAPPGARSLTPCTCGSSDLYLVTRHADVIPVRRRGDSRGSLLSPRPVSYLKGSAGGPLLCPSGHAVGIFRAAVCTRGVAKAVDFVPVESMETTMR
Sequence of telaprevir inducible (TI) NS3 (P26663 1027-1206 F1069L/A1092G/Q1106K/P1112Q/K1113A/S1148R/F1173S/D1194Y): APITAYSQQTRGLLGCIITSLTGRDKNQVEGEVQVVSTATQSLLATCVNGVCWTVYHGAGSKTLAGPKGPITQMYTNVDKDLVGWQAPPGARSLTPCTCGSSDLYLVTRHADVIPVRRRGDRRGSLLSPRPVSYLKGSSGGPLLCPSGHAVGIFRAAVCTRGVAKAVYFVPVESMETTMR
Sequence of dNS3-Cre-PHI (P26663 1027-1206 A1092G/P1112Q/K1113A/S1165A/F1173S): as the sequence (P26663 1027-1206 A1092G/P1112Q/K1113A/S1165A/F1173S) above
Sequence of NS3(TI) with S139A mutation (P26663 1027-1206 F1069L/A1092G/Q1106K/P1112Q/K1113A/S1148R/S1165A/F1173S/D1194Y): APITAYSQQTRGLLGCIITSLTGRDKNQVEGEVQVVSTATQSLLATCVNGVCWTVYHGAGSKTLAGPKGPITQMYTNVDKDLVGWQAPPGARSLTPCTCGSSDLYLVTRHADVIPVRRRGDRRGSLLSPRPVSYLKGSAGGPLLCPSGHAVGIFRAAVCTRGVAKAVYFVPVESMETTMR
Sequence of wild-type NS3 (P26663 1027-1206 A1092G/P1112Q/K1113A/F1173S): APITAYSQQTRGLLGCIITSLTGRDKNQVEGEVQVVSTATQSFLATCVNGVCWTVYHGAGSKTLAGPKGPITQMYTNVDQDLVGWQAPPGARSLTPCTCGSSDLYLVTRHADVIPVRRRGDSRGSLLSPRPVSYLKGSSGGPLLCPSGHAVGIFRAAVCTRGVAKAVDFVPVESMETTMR

For `CC(C)(C)OC(=O)N[C@H]1CCCCC/C=C\[C@@H]2C[C@@]2(C(=O)NS(=O)(=O)C2CC2)NC(=O)[C@@H]2C[C@@H](OC(=O)N3Cc4cccc(F)c4C3)CN2C1=O` [danoprevir, Danoprevir], the “Luciferase activity, dose response” value (dNS3 [1]) was “inhibit luciferase activity in a dose dependent manner”.
With `CCC[C@H](NC(=O)[C@@H]1[C@H]2CCC[C@H]2CN1C(=O)[C@@H](NC(=O)[C@@H](NC(=O)c1cnccn1)C1CCCCC1)C(C)(C)C)C(=O)C(=O)NC1CC1` [telaprevir] the “Luciferase activity, dose response with wild-type NS3” value (wild-type NS3) was “effect is reverted”, the “Drug sensitivity of NS3(TI) Cre with NS3 S139A mutation” value [2] was “ablates telaprevir sensitivity” and the “Induction of Cre recombination, telaprevir inducible (TI) construct” value [3] was “strongly induced”. For the same compound, the “Luciferase activity, dose response” value (dNS3 [1]) was “significant resistance”, the “Dissociation of dNS3-PMED complexes (temporal turn-off)” value (dNS3 [4]) was “did not dissociate dNS3-PMD complexes well” and the “Effect of NS3 S139A mutation alone on drug induction of Cre” value (dNS3-Cre-PHI) was “reduce telaprevir sensitivity”.
